US20240156960A1 (priority 2020, published 2024)
Where two headings read alike, the source gives them in different places.

What was measured:
[1] = system: coronavirus named in the cell (SARS-CoV2, SARS-CoV1), S protein; conditions: cited from earlier work
[2] = system: coronavirus named in the cell (SARS-CoV2, SARS-CoV1); conditions: cited from earlier work
[3] = Critical toxicity markers after dexamethasone pretreatment and IV DNA vector; conditions: pre-dosed IP 1 to 40 mg/kg
[4] = system: SARS-CoV2; conditions: Protein + Epitope: S; literature source; cited from earlier work
[5] = system: SARS-CoV1; conditions: cited from earlier work
[6] = biological target: SARS-CoV2 S; RBD (Severe acute respiratory syndrome coronavirus 2, UniProt P0DTC2); conditions: epitope S; cited from earlier work
[7] = system: SARS-CoV1; conditions: cited from earlier work; remark: listed apart in the source
[8] = mouse, in vivo
[9] = system: SARS-CoV2; conditions: SARS-CoV2 listed as bound; cited from earlier work
[10] = system: SARS-CoV2; conditions: SARS-CoV2 listed as neutralised; cited from earlier work
[11] = system: SARS-CoV2; conditions: source Seth Zost et al., 2020; cited from earlier work
[12] = Serum ALT/AST levels (toxicity) after liposome and DNA injection
[13] = Serum hG-CSF protein by ELISA after DOTAP liposomes, hG-CSF plasmid DNA and immuno-modulating agents; type: in vivo, CD-1 mice
[14] = system: mouse IGF-1; experiment: Serum levels of mouse IGF-1 by ELISA (hGH bioactivity); type: in vivo; conditions: CD-1 mice, day 127 after injection (Example 10)
[15] = IP 2 hours prior to lipid and DNA injection (Example 20 Part 4)
[16] = agent in liposomes pre-injected IP prior to cationic liposomes (Example 16 Part 3)
[17] = agent incorporated into cationic liposomes (900 nmol DOTAP SUV), 70 ug hG-CSF DNA, day 1

Compound: 4A8
- Binds to [1]: SARS-CoV2
- Neutralising Vs [2]: SARS-CoV2

Compound: C[C@@H]1C[C@H]2[C@@H]3CCC4=CC(=O)C=C[C@]4(C)[C@@]3(F)[C@@H](O)C[C@]2(C)[C@@]1(O)C(=O)CO [dexamethasone]
- critical toxicity markers [3]: at or closely approximating background control levels

Compound: B38
- Binds to [4]: SARS-CoV2

Compound: BD23
- Binds to [4]: SARS-CoV2

Compound: C002
- Not Neutralising Vs [5]: SARS-CoV1
- Binds to [4]: SARS-CoV2

Compound: C003
- Not Neutralising Vs [5]: SARS-CoV1
- Binds to [4]: SARS-CoV2

Compound: C005
- Not Neutralising Vs [5]: SARS-CoV1
- Binds to [4]: SARS-CoV2

Compound: C006
- Not Neutralising Vs [5]: SARS-CoV1
- Binds to [4]: SARS-CoV2

Compound: C013
- Not Neutralising Vs [5]: SARS-CoV1
- Binds to [4]: SARS-CoV2

Compound: C016
- Not Neutralising Vs [5]: SARS-CoV1,
- Binds to [4]: SARS-CoV2

Compound: C018
- Binds to [6]: SARS-CoV2
- Not Neutralising Vs [7]: SARS-CoV1,

Compound: C021
- Binds to [6]: SARS-CoV2
- Not Neutralising Vs [7]: SARS-CoV1,

Compound: C029
- Binds to [6]: SARS-CoV2
- Not Neutralising Vs [7]: SARS-CoV1,

Compound: C102
- Binds to [6]: SARS-CoV2

Compound: C107
- Binds to [6]: SARS-CoV2
- Not Neutralising Vs [7]: SARS-CoV1,

Compound: C112
- Binds to [6]: SARS-CoV2

Compound: C119
- Binds to [6]: SARS-CoV2

Compound: C121
- Binds to [6]: SARS-CoV2
- duration of fully neutralizing serum levels of each SARS-CoV2-specific mAb [8]: at least 134 days

Compound: CB6
- Binds to [9]: SARS-CoV2
- Neutralising Vs [10]: SARS-CoV2

Compound: CoV2-2130
- Binds to [11]: SARS-CoV2

Compound: CoV2-2196
- Binds to [11]: SARS-CoV2

Compound: N-Acetyl-De-O-Sulfated Heparin [NSH]
- toxicity (serum ALT/AST) ([12]; IP 0.25 or 1 mg per mouse, 2 hours pre or 2 hours post lipid and DNA injection): reduce toxicity
- toxicity (serum ALT/AST) [12, 15]: further reducing its toxicity
- gene expression (serum hG-CSF) [13, 15]: further increase gene expression

Compound: dexamethasone 21-palmitate [dexamethasone palmitate]
- toxicity (ALT levels) [12, 16]: further decrease toxicity
- toxicity (ALT levels) [12, 17]: further decrease toxicity
- peak levels of gene expression (serum hG-CSF) ([13]; 5 mole percent in DOTAP SUV, otherwise ineffective hG-CSF-DNA dose (Example 16 Part 6)): further increase peak levels of gene expression
- gene expression (serum hG-CSF) [13, 16]: further increase gene expression
- gene expression (serum hG-CSF) [13, 17]: further increase gene expression

Compound: hGH
- bioactivity of cDNA-encoded hGH protein (increase of endogenous mouse IGF-1) [14]: fully bioactive
